Among the data in ChEMBL document CHEMBL1135667, “Synthesis of halogen-substituted pyridyl and pyrimidyl derivatives of [3,2-c]pyrazolo corticosteroids: strategies for the development of glucocorticoid receptor mediated imaging agents” (J Med Chem, 2002) are RSA values, retold here.

This test deals with T1, Glucocorticoid receptor (Homo sapiens) (UniProt P04150).
T1 sequence (whole entry): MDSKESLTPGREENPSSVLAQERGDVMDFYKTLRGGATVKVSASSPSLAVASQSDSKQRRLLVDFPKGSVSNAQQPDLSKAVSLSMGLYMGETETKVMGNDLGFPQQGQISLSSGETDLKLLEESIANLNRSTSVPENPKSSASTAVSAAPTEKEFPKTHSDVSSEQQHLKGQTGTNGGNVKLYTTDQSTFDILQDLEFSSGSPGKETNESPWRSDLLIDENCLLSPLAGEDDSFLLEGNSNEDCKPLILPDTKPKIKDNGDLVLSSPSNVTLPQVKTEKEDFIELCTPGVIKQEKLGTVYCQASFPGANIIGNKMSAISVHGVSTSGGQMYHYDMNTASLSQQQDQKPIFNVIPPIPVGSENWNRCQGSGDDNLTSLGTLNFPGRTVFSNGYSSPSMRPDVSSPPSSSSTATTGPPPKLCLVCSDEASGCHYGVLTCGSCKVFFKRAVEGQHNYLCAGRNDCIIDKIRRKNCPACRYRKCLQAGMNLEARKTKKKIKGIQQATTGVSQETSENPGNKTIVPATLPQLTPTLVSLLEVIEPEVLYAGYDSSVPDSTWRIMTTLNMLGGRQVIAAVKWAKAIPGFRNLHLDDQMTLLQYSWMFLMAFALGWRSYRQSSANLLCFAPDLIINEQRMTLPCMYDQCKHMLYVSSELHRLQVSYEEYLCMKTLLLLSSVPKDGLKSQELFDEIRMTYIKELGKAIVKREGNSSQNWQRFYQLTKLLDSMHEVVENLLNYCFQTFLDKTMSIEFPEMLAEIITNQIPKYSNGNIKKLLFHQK
Conditions: HeLa.
Description: Relative transcriptional activation in HeLa cells expressing glucocorticoid receptor
`C[C@@H]1CC2C3CCC4=Cc5c(cnn5-c5cnccc5Cl)CC4(C)C3C(O)CC2(C)[C@@]1(O)C(=O)CO` (some centres not stated) showed an RSA of 33.

With `C[C@@H]1CC2C3CCC4=Cc5c(cnn5-c5ncccn5)CC4(C)C3C(O)CC2(C)[C@@]1(O)C(=O)CO` (some centres not stated), the RSA turned out to be 0.

Compound `C[C@@H]1CC2C3CCC4=Cc5c(cnn5-c5ccc(F)cc5)CC4(C)C3C(O)CC2(C)C1(O)C(=O)CO` (some centres not stated) showed an RSA of 483.

`C[C@@H]1CC2C3CCC4=Cc5c(cnn5-c5ccncc5)CC4(C)C3C(O)CC2(C)[C@@]1(O)C(=O)CO` (some centres not stated) came in with an RSA of 135.

As to `C[C@@H]1CC2C3CCC4=Cc5c(cnn5-c5cccnc5)CC4(C)C3C(O)CC2(C)[C@@]1(O)C(=O)CO` (some centres not stated), the RSA stood at 255.

The compound `C[C@@H]1CC2C3CCC4=Cc5c(cnn5-c5cccnc5F)CC4(C)C3C(O)CC2(C)[C@@]1(O)C(=O)CO` (some centres not stated) registered an RSA of 121.

In turn, `C[C@@H]1CC2C3CCC4=Cc5c(cnn5-c5ccncn5)CC4(C)C3C(O)CC2(C)[C@@]1(O)C(=O)CO` (some centres not stated) returned an RSA of 0.

On to `C[C@@H]1CC2C3CCC4=Cc5c(cnn5-c5cccnc5Cl)CC4(C)C3C(O)CC2(C)[C@@]1(O)C(=O)CO` (some centres not stated), for which the RSA was 97.

Regarding `C[C@@H]1C[C@H]2[C@@H]3CCC4=CC(=O)C=C[C@]4(C)[C@@]3(F)[C@@H](O)C[C@]2(C)[C@@]1(O)C(=O)CO`, the RSA is 100.

Turning to `C[C@@H]1CC2C3CCC4=Cc5c(cnn5-c5ccccn5)CC4(C)C3C(O)CC2(C)[C@@]1(O)C(=O)CO` (some centres not stated), the RSA turned out to be 30.

`C[C@@H]1CC2C3CCC4=Cc5c(cnn5-c5ccc(Cl)nc5)CC4(C)C3C(O)CC2(C)[C@@]1(O)C(=O)CO` (some centres not stated) came in with an RSA of 24.

The compound `C[C@@H]1CC2C3CCC4=Cc5c(cnn5-c5ccc(F)nc5)CC4(C)C3C(O)CC2(C)[C@@]1(O)C(=O)CO` (some centres not stated) registered an RSA of 436.
